# According to US11840686B2, “Modulation of prekallikrein (PKK) expression” (Ionis Pharmaceuticals, Inc., priority 2013, dated 2023):
# Strand notation (5' to 3'): a small letter for the sugar, then the base; units joined by * are phosphorothioate-linked, units joined directly phosphodiester-linked; [ ] holds rarer units or linkages, { } end groups; capitals alone tell only the bases. e = 2'-O-(2-methoxyethyl) (MOE); [5mC] = 5-methylcytosine; d = 2'-deoxy (DNA)
# System: human PKK mRNA
# Experiment: Antisense inhibition of human PKK mRNA in HepaRG cells, 5,000 nM (Example 2)
# Assay type: cell-based
# Experimental: Additional antisense oligonucleotides were designed targeting a PKK nucleic acid and were tested for their effects on PKK mRNA in vitro.
# The chimeric antisense oligonucleotides in the tables below were designed as 5-10-5 MOE gapmers, 4-9-4 MOE gapmers, 4-10-4 MOE gapmers, 4-10-3 MOE gapmers, 3-10-4 MOE gapmers, or 3-10-3 MOE gapmers. The 5-10-5 MOE gapmers are 20 nucleosides in length, wherein the central gap segment comprises of ten 2′-deoxynucleosides and is flanked by wing segments on the 5′ direction and the 3′ direction comprising five nucleosides each. The 4-9-4 MOE gapmers are 17 nucleosides in length, wherein the central gap segment comprises of nine 2′-deoxynucleosides and is flanked by wing segments on the 5′ direction and the 3′ direction comprising four nucleosides each. The 4-10-4 MOE gapmers are 18 nucleosides in length, wherein the central gap segment comprises of ten 2′-deoxynucleosides and is flanked by wing segments on the 5′ direction and the 3′ direction comprising four nucleosides each. The 4-10-3 MOE gapmers are 17 nucleosides in length, wherein the central gap segment comprises of ten 2′-deoxynucleosides and is flanked by wing segments on the 5′ direction and the 3′ direction comprising four and three nucleosides respectively. The 3-10-4 MOE gapmers are 17 nucleosides in length, wherein the central gap segment comprises often 2′-deoxynucleosides and is flanked by wing segments on the 5′ direction and the 3′ direction comprising three and four nucleosides respectively. The 3-10-3 MOE gapmers are 16 nucleosides in length, wherein the central gap segment comprises of ten 2′-deoxynucleosides and is flanked by wing segments on the 5′ direction and the 3′ direction comprising three nucleosides each. Each nucleoside in the 5′ wing segment and each nucleoside in the 3′ wing segment has a 2′-O-methoxyethyl modification. The internucleoside linkages throughout each gapmer are phosphorothioate linkages. All cytosine residues throughout each gapmer are 5-methylcytosines. “Start site” indicates the 5′-most nucleoside to which the gapmer is targeted in the human gene sequence. “Stop site” indicates the 3′-most nucleoside to which the gapmer is targeted in the human gene sequence.
# Cultured HepaRG™ cells at a density of 20,000 cells per well were transfected using electroporation with 5,000 nM antisense oligonucleotide. After a treatment period of approximately 24 hours, RNA was isolated from the cells and PKK mRNA levels were measured by quantitative real-time PCR. Human primer probe set RTS3454 was used to measure mRNA levels. PKK mRNA levels were adjusted according to total RNA content, as measured by RIBOGREEN®. The antisense oligonucleotides were tested in a series of experiments that had similar culture conditions. Results are presented as percent inhibition of PKK, relative to untreated control cells.
# [1] = Table 9 experiment, HepaRG cells, 20,000 cells per well, electroporation with 5,000 nM antisense oligonucleotide, approx. 24 hours, PKK mRNA by RT-PCR (RTS3454), relative to untreated control cells
# [2] = Table 10 experiment, HepaRG cells, 20,000 cells per well, electroporation with 5,000 nM antisense oligonucleotide, approx. 24 hours, PKK mRNA by RT-PCR (RTS3454), relative to untreated control cells
# [3] = HepaRG cells, 5,000 nM antisense oligonucleotide, 5-10-5 gapmers, Table 16
# [4] = Table 8, HepaRG cells, electroporation with 5,000 nM antisense oligonucleotide, approx. 24 hours, PKK mRNA by RT-PCR (RTS3454), relative to untreated control cells
# [5] = human PKK mRNA in HepaRG cells, 5-10-5 gapmers, Table 14
# [6] = HepaRG cells, electroporation, 5,000 nM antisense oligonucleotide, approx. 24 hours, primer probe set RTS3454, relative to untreated control cells, Table 11
# [7] = HepaRG cells, 5,000 nM antisense oligonucleotide, 5-10-5 gapmers, Table 17
# [8] = human PKK mRNA, HepaRG cells, 5-10-5 motif oligonucleotides targeting SEQ ID NO: 1 and 10
# [9] = HepaRG cells, electroporation with 5,000 nM antisense oligonucleotide, approximately 24 hours, PKK mRNA by RT-PCR (RTS3454), relative to untreated control cells, Table 6 experiment
# [10] = HepaRG cells, electroporation with 5,000 nM antisense oligonucleotide, approximately 24 hours, PKK mRNA by RT-PCR (RTS3454), relative to untreated control cells, Table 5 experiment
# [11] = HepaRG cells, electroporation, 5,000 nM antisense oligonucleotide, approx. 24 hours, primer probe set RTS3454, relative to untreated control cells, Table 12
substance,measurement,setting,value
546340 (antisense eT*eA*eA*eT*e[5mC]*dT*dT*dG*dA*dT*dA*dT*d[5mC]*dT*dT*eT*eT*e[5mC]*eT*eG) [compound 546340],% inhibition,[1],30%
same,% inhibition,[2],56%
547721 (e[5mC]*eT*e[5mC]*eT*eA*dT*d[5mC]*dA*dA*dA*dA*dT*d[5mC]*d[5mC]*dT*eG*e[5mC]*eT*eG*e[5mC]; antisense) [compound 547721],% inhibition,[3],68%
546283 (antisense eT*e[5mC]*eT*e[5mC]*eA*dA*dA*dG*dA*dG*dT*dA*dA*d[5mC]*d[5mC]*eA*eG*eA*eG*e[5mC]) [compound 546283],% inhibition,[4],88%
546873 (e[5mC]*eA*eA*eT*eA*dT*d[5mC]*dA*d[5mC]*dT*dG*dT*dA*d[5mC]*d[5mC]*eT*eA*eT*eA*eA; antisense) [compound 546873],% inhibition,[5],34%
546382 (antisense e[5mC]*eA*eA*eA*eG*dA*dA*dG*dA*dT*dG*d[5mC]*d[5mC]*dA*d[5mC]*eT*e[5mC]*eT*e[5mC]*e[5mC]) [compound 546382],% inhibition,[6],58%
547518 (antisense eT*e[5mC]*e[5mC]*eT*eT*dA*dG*dG*dA*dT*dG*d[5mC]*dA*dA*dA*eG*eA*eA*eG*eA) [compound 547518],% inhibition,[6],51%
547743 (eG*eG*eT*eG*eG*dT*dG*dG*dG*dA*dT*dT*dG*dG*dT*eG*eG*e[5mC]*eG*eG; antisense) [compound 547743],% inhibition,[7],61%
547635 (eT*eA*eT*e[5mC]*eA*d[5mC]*dT*dG*dT*dA*d[5mC]*dT*dA*dG*dT*eT*eT*eT*e[5mC]*eT; antisense) [compound 547635],% inhibition,[8],53%
547023 (eG*eA*eT*eT*eG*dG*dT*dG*dG*d[5mC]*dG*dG*dG*dA*dT*e[5mC]*eG*eG*eT*eG; antisense) [compound 547023],% inhibition,[7],91%
547522 (antisense eG*eA*eA*eA*eG*d[5mC]*dG*dG*dG*d[5mC]*dT*dT*d[5mC]*dA*dG*e[5mC]*e[5mC]*eA*eG*eA) [compound 547522],% inhibition,[6],73%
546192 (antisense eA*eA*eT*eT*eG*dA*d[5mC]*dT*d[5mC]*d[5mC]*dT*d[5mC]*dT*d[5mC]*dA*eT*eA*eT*e[5mC]*eA) [compound 546192],% inhibition,[9],51%
546150 (e[5mC]*eA*eT*e[5mC]*e[5mC]*d[5mC]*d[5mC]*dA*d[5mC]*d[5mC]*dT*d[5mC]*dT*dG*dA*eA*eG*eA*eA*eG; antisense) [compound 546150],% inhibition,[10],58%
547589 (eT*eA*eA*e[5mC]*eT*dA*dT*dA*dA*d[5mC]*dA*dG*dT*dA*dT*e[5mC]*eA*e[5mC]*eT*eG; antisense) [compound 547589],% inhibition,[5],36%
547741 (eT*eA*eG*eG*eT*dG*dG*dT*dG*dG*dG*dA*dT*dT*dG*eG*eT*eG*eG*eT; antisense) [compound 547741],% inhibition,[7],47%
546862 (eA*eA*e[5mC]*eT*eA*dT*dA*dA*d[5mC]*dA*dA*dT*dA*dT*d[5mC]*eA*e[5mC]*eT*eG*eT; antisense) [compound 546862],% inhibition,[5],0%
547345 (antisense eA*eG*eA*e[5mC]*eA*d[5mC]*dA*dT*dT*dA*dA*dA*dA*dT*dT*eG*eA*e[5mC]*eT*e[5mC]) [compound 547345],% inhibition,[9],80%
546159 (eT*eA*eG*e[5mC]*eA*dA*dA*d[5mC]*dA*d[5mC]*d[5mC]*dT*dT*dG*dG*eG*eT*eG*eG*eA; antisense) [compound 546159],% inhibition,[10],76%
548712 (DNA eA*e[5mC]*eT*dG*dT*dA*d[5mC]*dT*dA*dG*dT*dT*dT*e[5mC]*e[5mC]*eT; antisense) [compound 548712],% inhibition,"HepaRG cells, 5,000 nM antisense oligonucleotide, human PKK mRNA, Table 18",9%
547545 (antisense eA*eT*eA*e[5mC]*eT*d[5mC]*dG*d[5mC]*d[5mC]*dT*dT*dT*dG*dT*dG*eA*eT*eG*e[5mC]*eG) [compound 547545],% inhibition,[11],43%
546311 (antisense e[5mC]*eA*eT*eG*eA*dT*dT*d[5mC]*d[5mC]*d[5mC]*dT*dT*d[5mC]*dT*dG*eA*eG*eA*e[5mC]*eT) [compound 546311],% inhibition,[1],79%
same,% inhibition,[2],76%
547510 (antisense eA*eT*eG*eA*eG*dG*dA*d[5mC]*d[5mC]*d[5mC]*d[5mC]*d[5mC]*d[5mC]*dA*dG*eG*e[5mC]*eT*e[5mC]*eA) [compound 547510],% inhibition,[6],40%
546222 (antisense eG*eG*eG*eT*eG*dA*dT*dA*dG*dG*dT*dG*d[5mC]*dA*dG*eA*eT*eG*eG*eT) [compound 546222],% inhibition,"Table 7, HepaRG cells, electroporation with 5,000 nM antisense oligonucleotide, approx. 24 hours, PKK mRNA by RT-PCR (RTS3454), relative to untreated control cells",12%
547459 (antisense eG*eA*eG*eT*eT*dT*dT*dA*dT*d[5mC]*dA*dA*dG*dG*d[5mC]*eG*eA*eT*eA*eT) [compound 547459],% inhibition,[1],28%
same,% inhibition,[2],51%
547463 (antisense eT*eA*eG*eG*e[5mC]*dA*dT*dA*dT*dT*dG*dG*dT*dT*dT*eT*eT*eG*eG*eA) [compound 547463],% inhibition,[1],74%
same,% inhibition,[2],84%
547000 (eT*e[5mC]*eT*eG*eT*dT*dA*d[5mC]*d[5mC]*dT*dT*dG*dA*dG*dG*eA*eT*eT*eG*eT; antisense) [compound 547000],% inhibition,[7],63%
547639 (eG*eT*e[5mC]*e[5mC]*eT*dA*dT*dA*dA*d[5mC]*dT*dA*dT*dA*dA*e[5mC]*eA*eG*eT*eA; antisense) [compound 547639],% inhibition,[8],72%
546380 (antisense eG*e[5mC]*e[5mC]*eA*e[5mC]*dT*d[5mC]*dT*d[5mC]*d[5mC]*dA*dT*dG*d[5mC]*dT*eT*eT*eG*e[5mC]*eA) [compound 546380],% inhibition,[6],81%
546946 (eA*e[5mC]*eT*e[5mC]*e[5mC]*d[5mC]*dA*dT*d[5mC]*dT*dA*d[5mC]*dT*d[5mC]*d[5mC]*e[5mC]*e[5mC]*e[5mC]*eA*eT; antisense) [compound 546946],% inhibition,[3],41%
546295 (antisense e[5mC]*e[5mC]*e[5mC]*eA*e[5mC]*dT*dG*dG*dT*dG*dT*d[5mC]*d[5mC]*dT*dA*eT*eG*eA*eG*eT) [compound 546295],% inhibition,[4],67%
546459 (eG*eT*eA*eG*e[5mC]*d[5mC]*dA*dT*dA*d[5mC]*dA*dT*d[5mC]*dT*dG*eA*eG*eG*eA*eA; antisense) [compound 546459],% inhibition,[11],46%
547682 (antisense e[5mC]*eA*eA*eT*eA*dT*d[5mC]*dA*d[5mC]*dT*dG*dT*dA*d[5mC]*d[5mC]*eT*eA*eT*eA*eT) [compound 547682],% inhibition,[3],20%
547630 (antisense eA*e[5mC]*eT*eG*eT*d[5mC]*d[5mC]*dT*dA*dT*dA*dT*d[5mC]*dA*d[5mC]*eT*e[5mC]*eT*eA*e[5mC]) [compound 547630],% inhibition,[8],76%
547551 (antisense eT*e[5mC]*e[5mC]*e[5mC]*e[5mC]*dA*dT*dG*d[5mC]*dA*dT*dA*d[5mC]*dT*d[5mC]*eG*e[5mC]*e[5mC]*eT*eT) [compound 547551],% inhibition,[11],38%
546763 (eG*e[5mC]*eT*eT*e[5mC]*d[5mC]*d[5mC]*d[5mC]*dA*dA*dT*dA*d[5mC]*dT*dT*eG*e[5mC]*eT*eG*eG; antisense) [compound 546763],% inhibition,"Table 13, human PKK mRNA in HepaRG cells, 5-10-5 gapmers",84%
